# Measurements: patent publication US8163737B2 (Vertex Pharmaceuticals Incorporated, priority 2006, dated 2012)
# Target: endogenous CGRP receptor (Homo sapiens, UniProt O60894+Q16602)
# Assay: CGRP functional antagonism using SK-N-MC-BLA (4C10), β-lactamase transcriptional reporter assay
# Type: cell-based
# Conditions: SK-N-MC (4C10) cells, inhibition of β-lactamase expression in the presence of 200 pM CGRP
# Sequence of endogenous CGRP receptor (Q16602 23-461): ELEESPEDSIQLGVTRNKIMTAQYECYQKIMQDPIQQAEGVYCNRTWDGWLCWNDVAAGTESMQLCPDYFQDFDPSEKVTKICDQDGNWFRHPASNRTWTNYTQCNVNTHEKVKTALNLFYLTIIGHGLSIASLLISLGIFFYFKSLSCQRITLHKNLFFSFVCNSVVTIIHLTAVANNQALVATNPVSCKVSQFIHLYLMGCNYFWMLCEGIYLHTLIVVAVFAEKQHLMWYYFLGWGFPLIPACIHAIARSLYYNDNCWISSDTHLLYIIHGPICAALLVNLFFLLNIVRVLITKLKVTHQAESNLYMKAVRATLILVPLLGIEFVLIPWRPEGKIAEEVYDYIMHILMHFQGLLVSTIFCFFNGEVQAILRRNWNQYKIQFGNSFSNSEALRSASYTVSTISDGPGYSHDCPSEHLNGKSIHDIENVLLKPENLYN
# Sequence of endogenous CGRP receptor (O60894 27-148): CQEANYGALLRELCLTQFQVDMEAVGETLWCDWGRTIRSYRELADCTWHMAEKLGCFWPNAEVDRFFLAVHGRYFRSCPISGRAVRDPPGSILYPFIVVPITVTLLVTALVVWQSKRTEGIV
row,Structure (SMILES),IC50
1,COc1ccc(C2SC(CC(=O)N3CCC(N4Cc5ccccc5NC4=O)CC3)C(=O)N2CCC(C)C)cc1F (stereo not shown) [Compound 18],1 to 5 µM
2,CC(C)N1CCN(c2cccc(Cl)c2C2S[C@H](CC(=O)N3CCC(N4CCc5ccccc5NC4=O)CC3)C(=O)N2CCC(C)(C)C)CC1 (stereo partly shown) [Compound 433],> 5 µM
3,CN(c1ccccc1C1SC(CC(=O)N2CCC(n3c(=O)[nH]c4ncccc43)CC2)C(=O)N1CCC(C)(C)C)[C@@H]1CCN(Cc2ccccc2)C1 (stereo partly shown) [Compound 408],< 1 µM
4,COC(=O)[C@@H](CC1CCCCC1)N1C(=O)C(CC(=O)N2CCC(N3CCc4ccccc4NC3=O)CC2)SC1c1ccccc1 (stereo partly shown) [Compound 243],1 to 5 µM
5,CC(C)(C)CCN1C(=O)C(CC(=O)N2CCC(N3Cc4ccccc4NC3=O)CC2)SC1c1ccccc1N1CCCCC1 (stereo not shown) [Compound 235],1 to 5 µM
6,CC(C)CCN1C(=O)C(CC(=O)N2CCC(N3Cc4ccccc4NC3=O)CC2)SC1CC(C)(C)C (stereo not shown) [Compound 276],1 to 5 µM
7,CC(C)CCN1C(=O)C(CC(=O)N2CCC(N3CCc4ccccc4NC3=O)CC2)SC1c1c(Cl)cccc1Cl (stereo not shown) [Compound 89],< 1 µM
8,CN1CCN(c2ccccc2[C@H]2SC(CC(=O)N3CCC(n4c(=O)[nH]c5ccccc54)CC3)C(=O)N2CCC(C)(C)C)CC1 (stereo partly shown) [Compound 22],1 to 5 µM
9,CC(C)(C)CCN1C(=O)C(CC(=O)N2CCC(N3CCc4ccccc4NC3=O)CC2)SC1c1cccc(F)c1N1CCN(CC(F)(F)F)CC1 (stereo not shown) [Compound 392],> 5 µM
10,CC(C)CCN1C(=O)C(CC(=O)N2CCC(n3c(=O)[nH]c4ccccc43)CC2)SC1c1ccccc1N1CCOCC1 (stereo not shown) [Compound 294],< 1 µM
11,CC(C)CCN1C(=O)C(CC(=O)N2CCC(N3CCc4ccccc4NC3=O)CC2)SC1c1ccccc1N(C)C (stereo not shown) [Compound 152],< 1 µM
12,CC(C)CCN1C(=O)C(CC(=O)N2CCC(N3CCc4ccccc4NC3=O)CC2)SC12CCCCCC2 (stereo not shown) [Compound 91],< 1 µM
13,CC(C)N1C(=O)C(CC(=O)N2CCC(N3CCc4ccccc4NC3=O)CC2)SC1c1ccccc1 (stereo not shown) [Compound 24],1 to 5 µM
14,CC(C)CCN1C(=O)C(CC(=O)N2CCC3(CC2)C(=O)NCN3c2ccccc2)SC1c1ccccc1 (stereo not shown) [Compound 186],> 5 µM
15,O=C(CC1SC(c2ccccc2)N(CC(F)(F)C(F)(F)F)C1=O)N1CCC(N2Cc3ccccc3NC2=O)CC1 (stereo not shown) [Compound 36],< 1 µM
16,CC(C)(C)CCN1C(=O)C(CC(=O)N2CCC(N3CCc4ccccc4NC3=O)CC2)SC1c1ncc[nH]1 (stereo not shown) [Compound 314],> 5 µM
17,CC(C)(C)CCN1C(=O)C(CC(=O)N2CCC(n3c(=O)[nH]c4ccccc43)CC2)SC12c1ccccc1-c1ccccc12 (stereo not shown) [Compound 311],1 to 5 µM
18,CN1CCC(N2CCN(c3ccccc3C3SC(CC(=O)N4CCC(N5CCc6ccccc6NC5=O)CC4)C(=O)N3CCC(C)(C)C)CC2)CC1 (stereo not shown) [Compound 379],< 1 µM
19,CC(C)(C)CCN1C(=O)[C@H](CC(=O)N2CCC(n3c(=O)[nH]c4ncccc43)CC2)S[C@H]1c1cccc(F)c1N1CCC(N)C1 (stereo partly shown) [Compound 465],1 to 5 µM
20,"CN1C(=O)C(CC(=O)N2CCC(N3Cc4ccccc4NC3=O)CC2)SC1c1ccccc1 (stereo not shown) [Compound 273, 3,4-Dihydro-3-(1-(2-(3-methyl-4-oxo-2-phenylthiazolidin-5-yl)acetyl)piperidin-4-yl)quinazolin-2(1H)-one]",1 to 5 µM
21,CN1CCN(c2c(Cl)cccc2C2SC(CC(=O)N3CCC(n4cc(-c5ccccc5)[nH]c4=O)CC3)C(=O)N2CCC(C)(C)C)CC1 (stereo not shown) [Compound 358],> 5 µM
22,O=C(CC1SC(C2CCOCC2)N(c2ccc(N3CCOCC3)cc2)C1=O)N1CCC(N2CCc3ccccc3NC2=O)CC1 (stereo not shown) [Compound 422],< 1 µM

row,Structure (SMILES),IC50
1,CC(C)CCN1C(=O)C(CC(=O)N2CCC3(CC2)OC(=O)Nc2ccccc23)SC1c1ccccc1 (stereo not shown) [Compound 223],> 5 µM
2,CC(C)(C)CCN1C(=O)C(CC(=O)N2CCC(N3Cc4ccccc4NC3=O)CC2)SC1c1c[nH]cn1 (stereo not shown) [Compound 305],1 to 5 µM
3,CC(C)CCN1C(=O)C(CC(=O)N2CCC(N3CCc4ccccc4NC3=O)CC2)SC1c1cccc(C(F)(F)F)c1F (stereo not shown) [Compound 23],< 1 µM
4,CC(C)(C)CC1SC(CC(=O)N2CCC(n3c(=O)[nH]c4ncccc43)CC2)C(=O)N1c1ccccc1 (stereo not shown) [Compound 417],1 to 5 µM
5,CC(=O)N1CC2(CCN(C(=O)CC3SC(c4ccccc4)N(CCC(C)C)C3=O)CC2)c2cc(C(C)C)ccc21 (stereo not shown) [Compound 27],> 5 µM
6,CC(C)(C)CCN1C(=O)C(CC(=O)N2CCC(N3CCc4ccccc4NC3=O)CC2)SC12CCCCCC2 (stereo not shown) [Compound 57],< 1 µM
7,CN1CCN(c2ccccc2C2SC(CC(=O)N3CCC(N4CCc5ccccc5NC4=O)CC3)C(=O)N2CCC(C)(C)C)CC1 (stereo not shown) [Compound 34],< 1 µM
8,CC(C)CCN1C(=O)C(CC(=O)N2CCC(N3CCc4ccccc4NC3=O)CC2)SC1[C@H](C)c1ccccc1 (stereo partly shown) [Compound 180],1 to 5 µM
9,CC(C)CCN1C(=O)C(CC(=O)N2CCC(N3Cc4ccccc4NC3=O)CC2)SC12CCCCC2 (stereo not shown) [Compound 86],1 to 5 µM
10,O=C(CC1SC(C2CCOCC2)N(c2ccccc2)C1=O)N1CCC(N2CCc3ccccc3NC2=O)CC1 (stereo not shown) [Compound 420],> 5 µM
11,CN1CCN(c2ccccc2C2SC(CC(=O)N3CCC(CO)CC3)C(=O)N2CCC(C)(C)C)CC1 (stereo not shown) [Compound 85],> 5 µM
12,CC(C)(C)CCN1C(=O)C(CC(=O)N2CCC(N3CCc4ccccc4NC3=O)CC2)SC1c1cccc2cc[nH]c12 (stereo not shown) [Compound 130],1 to 5 µM
13,O=C(CC1SC(Cc2ccccc2)N(CC(F)(F)F)C1=O)N1CCC(n2cc(-c3ccccc3)[nH]c2=O)CC1 (stereo not shown) [Compound 189],> 5 µM
14,CC(C)CCN1C(=O)C(CC(=O)N2CCC3(CC2)C(=O)Nc2ccccc23)SC1c1ccccc1 (stereo not shown) [Compound 111],> 5 µM
15,O=C(CC1SC(c2ccccc2)N(CCC(F)(F)F)C1=O)N1CCC(N2CCc3ccccc3NC2=O)CC1 (stereo not shown) [Compound 280],< 1 µM
16,COC(=O)[C@H](CC1CCCCC1)N1C(=O)C(CC(=O)N2CCC(N3Cc4ccccc4NC3=O)CC2)SC1c1ccccc1 (stereo partly shown) [Compound 55],1 to 5 µM
17,CC(C)CCN1C(=O)C(CC(=O)N2CCC(N3CCc4ccccc4NC3=O)CC2)SC1C1CCCOC1 (stereo not shown) [Compound 239],< 1 µM
18,CC(C)CC1SC(CC(=O)N2CCC(N3CCc4ccccc4NC3=O)CC2)C(=O)N1CCc1ccncc1 (stereo not shown) [Compound 245],> 5 µM
19,CN1CCN(c2cc(F)ccc2C2SC(CC(=O)N3CCC(n4c(=O)[nH]c5ncccc54)CC3)C(=O)N2CCC(C)(C)C)CC1 (stereo not shown) [Compound 362],1 to 5 µM
20,CN(C)C1CCN(c2ccccc2C2SC(CC(=O)N3CCC(N4CCc5ccccc5NC4=O)CC3)C(=O)N2CCC(C)(C)C)CC1 (stereo not shown) [Compound 419],1 to 5 µM
21,CN1CCN(c2ccccc2[C@@H]2S[C@H](CC(=O)N3CCC(N4CCc5ccccc5NC4=O)CC3)C(=O)N2CCC(C)(C)C)CC1 [Compound 388],> 5 µM
22,CC(C)CCN1C(=O)C(CC(=O)N2CCC(n3c(=O)[nH]c4ccccc43)CC2)SC1c1ccccc1N1CCCCC1 (stereo not shown) [Compound 292],1 to 5 µM

row,Structure (SMILES),IC50
1,CC(C)CCN1C(=O)C(CC(=O)N2CCC(N3CCc4ccccc4NC3=O)CC2)SC1c1c(F)cccc1Cl (stereo not shown) [Compound 221],< 1 µM
2,CN1CCN(c2ccccc2[C@@H]2SC(CC(=O)N3CCC(n4c(=O)[nH]c5ncccc54)CC3)C(=O)N2CCC(C)(C)C)CC1 (stereo partly shown) [Compound 274],< 1 µM
3,CCN1CCN(c2c(F)cccc2C2SC(CC(=O)N3CCC(N4Cc5ccccc5NC4=O)CC3)C(=O)N2CCC(C)(C)C)CC1 (stereo not shown) [Compound 344],< 1 µM
4,CC(C)(C)CCN1C(=O)[C@H](CC(=O)N2CCC(n3c(=O)[nH]c4ncccc43)CC2)S[C@H]1c1cccc(F)c1N1CCC(N2CCCCC2)CC1 [Compound 441],< 1 µM
5,CN1CCN(c2c(F)cccc2C2SC(CC(=O)N3CCC(n4c(=O)[nH]c5ccccc54)CC3)C(=O)N2CCC(C)(C)C)CC1 (stereo not shown) [Compound 338],< 1 µM
6,Cc1cc(C2SC(CC(=O)N3CCC(N4CCc5ccccc5NC4=O)CC3)C(=O)N2CCC(C)C)cc2cn[nH]c12 (stereo not shown) [Compound 206],< 1 µM
7,CN1CCN(c2ccccc2C2SC(CC(=O)N3CCC(n4cc(-c5ccccc5)[nH]c4=O)CC3)C(=O)N2CCC(C)(C)C)CC1 (stereo not shown) [Compound 257],< 1 µM
8,CC(C)(C)CCN1C(=O)C(CC(=O)N2CCC(n3c(=O)[nH]c4ncccc43)CC2)SC1c1cccc(F)c1N1CCN(C2CC2)CC1 (stereo not shown) [Compound 390],> 5 µM
9,Cc1cc(C)c(C2SC(CC(=O)N3CCC(N4Cc5ccccc5NC4=O)CC3)C(=O)N2CCC(C)C)c(C)c1 (stereo not shown) [Compound 51],< 1 µM
10,CN(C)CCN(C)c1ccccc1C1SC(CC(=O)N2CCC(N3CCc4ccccc4NC3=O)CC2)C(=O)N1CCC(C)(C)C (stereo not shown) [Compound 383],1 to 5 µM
11,CC(C)(C)CC1SC(CC(=O)N2CCC(N3CCc4ccccc4NC3=O)CC2)C(=O)N1c1ccc(N2CCOCC2)cc1 (stereo not shown) [Compound 423],< 1 µM
12,CN1CCN(c2ccccc2[C@H]2SC(CC(=O)N3CCCCC3)C(=O)N2CCC(C)(C)C)CC1 (stereo partly shown) [Compound 97],> 5 µM
13,CC(C)CCN1C(=O)C(CC(=O)N2CCC(N3CCc4ccccc4NC3=O)CC2)SC1Cc1ccccc1 (stereo not shown) [Compound 98],1 to 5 µM
14,CCC1SC(CC(=O)N2CCC(n3c(=O)[nH]c4ccccc43)CC2)C(=O)N1CC(F)(F)F (stereo not shown) [Compound 218],> 5 µM
15,CC(C)CCN1C(=O)C(CC(=O)N2CCC(N3CCc4ccccc4NC3=O)CC2)SC1c1cccnc1N1CCOCC1 (stereo not shown) [Compound 125],< 1 µM
16,CN1CCN(c2ccccc2[C@@H]2S[C@](C)(CC(=O)N3CCC(n4c(=O)[nH]c5ncccc54)CC3)C(=O)N2CCC(C)(C)C)CC1 [Compound 378],< 1 µM
17,CC(C)(C)CCN1C(=O)C(CC(=O)N2CCC(n3c(=O)[nH]c4ccccc43)CC2)SC1c1ccccc1N1CCCCC1 (stereo not shown) [Compound 298],< 1 µM
18,CC1=CCCC(C)C1C1SC(CC(=O)N2CCC(N3CCc4ccccc4NC3=O)CC2)C(=O)N1CCC(C)C (stereo not shown) [Compound 181],< 1 µM
19,CC(C)(C)CCN1C(=O)C(CC(=O)N2CCC(N3Cc4ccccc4NC3=O)CC2)SC1c1ccccc1F (stereo not shown) [Compound 252],< 1 µM
20,O=C(CC1SC(c2ccccc2)N(CC2CC2)C1=O)N1CCC(N2CCc3ccccc3NC2=O)CC1 (stereo not shown) [Compound 138],< 1 µM
